{"source": "patent US20120100616A1", "about": "“METHOD OF DOUBLE CROSSOVER HOMOLOGOUS REC[…] CLOSTRIDIA” (THE UNIVERSITY OF NOTTINGHAM, priority 2009, published 2012)", "key": {"[1]": {"tested_on": "C. difficile cells harbouring the codA cassette", "assay": "functionality testing of codA cassette for counter selection on minimal medium with FC", "assay_type": "cell-based", "conditions": "100 μg/ml FC, modified minimal medium, codA cassette on pMTL960 plasmid, FIG. 4", "description": "(§1) The codA expression cassette was isolated from the vector used by Fox et al., Gene Therapy. (1996) 3:173-178 and cloned into pMTL960. This plasmid was used to test the functionality of the codA gene in E. coli and C. difficile."}, "[2]": {"tested_on": "E. coli harbouring the codA construct", "assay": "functionality testing of codA gene in E. coli with and without FC", "assay_type": "cell-based", "conditions": "codA cassette on pMTL960 plasmid, with vs without FC", "description": "as §1"}}, "data": [{"compound": "Nc1nc(=O)[nH]cc1F", "note": "[FC, 5-fluorocytosine]", "values": [{"measurement": "growth of cells expressing codA on minimal medium containing FC", "setting": "[1]", "result": "did not grow"}, {"measurement": "growth of E. coli carrying the codA construct in presence of FC", "setting": "[2]", "result": "permitting growth in the absence of FC but not in the presence of FC"}]}]}
